Experimental data taken from article PMC9136011, “Targeting the Homologous Recombination Pathway in Cancer With a Novel Class of RAD51 Inhibitors” (Frontiers in Oncology, 2022).
pIC50: −log10 of the molar value.

How the values were obtained:
Raji cells = experiment: Cell growth inhibition assay (CellTiter-Glo); assay type: cell-based; details: Homo sapiens, 168 h, 7 days, estimated from four-parameter curve
Procedure: (§1) Cells were seeded in opaque-walled 96-well microplates at appropriate densities according to the growth curves (data no shown). On the following day cells were dosed with compounds. After 7 days treatments, cells viability was measured by adding 30μL CellTiter-Glo reagent (Promega) and incubated for 10 min at RT. Luminescence was measured by Envision plate reader (Perkin Elmer). For synergy analysis, the survival rates of the cells upon different treatment combinations were calculated based on the luminescence and analyzed by Combenefit software. The bliss independence model was used to analyzed the interaction between two tested articles to determine if the interaction between those two tested articles was synergistic, independent or antagonistic.

MDA-MB-231 cells = experiment: Cell growth inhibition assay (CellTiter-Glo); assay type: cell-based; details: Homo sapiens, MDA-MB-231, 168 h; 7 days, estimated from four-parameter curve
Procedure: as §1

HuP-T4 cells = experiment: Cell growth inhibition assay (CellTiter-Glo); assay type: cell-based; details: Homo sapiens, HuP-T4, 168 h; 7 days, estimated from four-parameter curve
Procedure: as §1

NCI-H1563 cells = experiment: Cell growth inhibition assay (CellTiter-Glo); assay type: cell-based; details: Homo sapiens, NCI-H1563, 168 h; 7 days, estimated from four-parameter curve
Procedure: as §1

Z-138 cells = experiment: Cell growth inhibition assay (CellTiter-Glo); assay type: cell-based; details: Homo sapiens, Z-138, 168 h; 7 days, estimated from four-parameter curve
Procedure: as §1

HCC15 cells = experiment: Cell growth inhibition assay (CellTiter-Glo); assay type: cell-based; details: Homo sapiens, HCC15, 168 h; 7 days, estimated from four-parameter curve
Procedure: as §1

HCC1937 cells = experiment: Cell growth inhibition assay (CellTiter-Glo); assay type: cell-based; details: Homo sapiens, HCC1937, 168 h; 7 days, estimated from four-parameter curve
Procedure: as §1

MDA-MB-468 cells = experiment: Cell growth inhibition assay (CellTiter-Glo); assay type: cell-based; details: Homo sapiens, MDA-MB-468, 168 h; 7 days, estimated from four-parameter curve
Procedure: as §1

NCI-H526 cells = experiment: Cell growth inhibition assay (CellTiter-Glo); assay type: cell-based; details: Homo sapiens, NCI-H526, 168 h; 7 days, estimated from four-parameter curve
Procedure: as §1

[1] = tested on: 15 human tumor cell lines; experiment: Cell growth inhibition assay, panel summary; assay type: cell-based; details: lowest to highest, upper end printed as over 25 μM, read-out: IC50 values across the 15 cell lines
Procedure: as §1

MDA-MB-436 cells = experiment: Cell growth inhibition assay (CellTiter-Glo) and Bliss synergy analysis; assay type: cell-based; details: Homo sapiens, MDA-MB-436, 168 h; 7 days, estimated from four-parameter curve
Procedure: as §1

KP-4 cells = experiment: as above; assay type: cell-based; details: Homo sapiens, KP-4, 168 h; 7 days, estimated from four-parameter curve
Procedure: as §1

Daudi cells = experiment: as above; assay type: cell-based; details: Homo sapiens, 168 h, 7 days; for pIC50: estimated from four-parameter curve
Procedure: as §1

NCI-H23 cells = experiment: as above; assay type: cell-based; details: Homo sapiens, NCI-H23, 168 h; 7 days, estimated from four-parameter curve
Procedure: as §1

A549 cells = experiment: as above; assay type: cell-based; details: Homo sapiens, A549, 168 h; 7 days, estimated from four-parameter curve
Procedure: as §1

MIA PaCa-2 cells = experiment: as above; assay type: cell-based; details: Homo sapiens, MIA PaCa-2, 168 h; 7 days, estimated from four-parameter curve
Procedure: as §1

normal WI-38 cells = experiment: Cell growth inhibition assay, normal cells; assay type: cell-based; details: Homo sapiens, read-out: IC50, normal cell viability
Procedure: as §1

Daudi xenograft = Daudi xenograft mouse model, tumor growth inhibition; assay type: in vivo; details: 2 mg/kg Cisplatin intraperitoneally every week
Procedure: Daudi xenograft mouse model was established by subcutaneously implantation of 10^7 cells into the female BABL/c nude mice at the age of 6-8 weeks. When tumors reached approximately 100-120 mm^3, the mice were randomly grouped into five groups (n=6) and treated with vehicle control orally every day, 30 mg/kg or 100 mg/kg Cpd-4 orally every day, 2 mg/kg Cisplatin intraperitoneally every week, or combination of 30 mg/kg Cpd-4 and 2 mg/kg Cisplatin. Cpd-4 was formulated in 30% PEG400 (Sigma) and 70% 10% vitamin E TPGS (Sigma) in water. Cisplatin was reconstituted in normal saline. Cpd-4 was administrated starting from Day 0 and Cisplatin was administrated starting from on Day1. Cisplatin was administrated 4 hours after the treatment of Cpd-4 at day 1, 8 and 15. Tumor volume was monitored twice a week.
The long diameter (a) and the short diameter (b) of the tumor were measured using caliper and the tumor volume (v was calculated using the following formula: […]
Tumor growth inhibition was calculated using the formula:
TGI(%)=(1−(Vt(treatment group)−V0(treatment group))/Vt(vehicle group)−V0(vehicle group))×100%
V0 is the tumor volume of the animal when treatment starts; vtis the tumor volume of the animal someday after treatment. The statistics of tumor volume was analyzed by two-way ANOVA followed by Tukey’s multiple comparisons test using GraphPad Prism 8.0.

O=C(c1cc(Cc2n[nH]c(=O)c3ccccc23)ccc1F)N1CCN(C(=O)C2CC2)CC1 [Olaparib, olaparib]
pIC50 (Raji cells): 5.31
pIC50 (MDA-MB-231 cells): 5.31
pIC50 (HuP-T4 cells): 5.11
pIC50 (NCI-H1563 cells): < 4.60
pIC50 (Z-138 cells): 5.83
pIC50 (HCC15 cells): 5.04
pIC50 (HCC1937 cells): 4.97
pIC50 (MDA-MB-468 cells): 5.26
pIC50 (NCI-H526 cells): 5.41
pIC50 [1]: 4.60 to 6.87
pIC50 (MDA-MB-436 cells): 6.87
pIC50 (KP-4 cells): 5.15
pIC50 (Daudi cells): 5.24
pIC50 (NCI-H23 cells): 5.48
pIC50 (A549 cells): 4.75
pIC50 (MIA PaCa-2 cells): 5.15

CC(C)OC(=O)Nc1ccc(-c2cnc(C3CCC(NC(=O)OC(C)C)CC3)s2)c(S(=O)(=O)C2CC2)c1 (stereo not shown) [Cpd-2]
pIC50 (Raji cells): 6.79
pIC50 (MDA-MB-231 cells): 5.29
pIC50 (HuP-T4 cells): 5.10
pIC50 (NCI-H1563 cells): 4.89
pIC50 (Z-138 cells): 5.34
pIC50 (HCC15 cells): 5.69
pIC50 (HCC1937 cells): 5.48
pIC50 (MDA-MB-468 cells): 6.20
pIC50 (NCI-H526 cells): 6.45
pIC50 (MDA-MB-436 cells): 5.58
pIC50 (KP-4 cells): 5.50
pIC50 (Daudi cells): 7.32
inhibition at 0.25 µM (Daudi cells; Cpd-2 250 nM): 41.1%
pIC50 (NCI-H23 cells): 5.45
pIC50 (A549 cells): 5.40
pIC50 (MIA PaCa-2 cells): 5.32
pIC50 (normal WI-38 cells): < 5.00

N.N.[Cl][Pt][Cl] [Cisplatin, cisplatin]
TGI (Daudi xenograft): 20.7%
